Laboratory results from patent US7906515B2, “Cancer treatment with topoisomerase-II inhibitor, a bis-dioxypiperazine and radiation” (Topotarget A/S, priority 2004, dated 2011).
“Also recorded” adds a separate entry of the source. Read-outs that look alike come from different tables or passages of the source.

Assays:
[1] = Histological evaluation of the blood brain barrier and blood tumour barrier by dye staining; assay type: in vivo; settings: day 3 after tumour implantation; 5 mice per dye
Protocol: Following anaesthesia by hypnorm/dormicum 25 uL of Evans Blue Dye or 80 uL of Lissamine Green was administered by a tail-vein. After allowing the dye to circulate, animals were perfused transcardially with a 4% formalin solution for 5 minutes. The brain was kept in formalin 4%, and […] thick slices were cut on a vibratome and evaluated visually for staining. A check for positive stain of organs was performed before inclusion of the animal in the evaluation of staining of the brain and tumour. Evans Blue Dye and Lissamine Green were obtained from Sigma-Aldrich (Vallensbaek, DK) and prepared fresh as a 2% solution in isotonic saline.
(§1) Experiments with Evans blue dye, Lissamine Green and 3H-etoposide were done on day 3, with preparations as described for treatment efficacy experiments.

[2] = system: Ehrlich Ascites tumour cells; assay: Treatment efficacy: survival of mice with intracerebrally implanted Ehrlich Ascites tumour; assay type: in vivo, B6D2F1 female mice
Protocol: B6D2F1 female mice from Taconic M&B (Ry, Denmark) were housed in cages of 9 with free access to water and Altromi laboratory diet from Brogaarden (Gentofte, DK). They weighed 19-22 grams at inclusion in protocol. Animals that deteriorated clinically during the experiment were euthanised, and the experiments were approved by the Danish Animal Experimentation Inspectorate.
A total of 15×10^4 Ehrlich Ascites tumour cells in 30 uL saline were implanted into the right temporal hemisphere during short CO2 anaesthesia on day 0 and treated on day 3. Treatment was scheduled as follows: dexrazoxane at t=0, etoposide at t=20 minutes and radiation treatment at t=50 minutes. Before the radiotherapy procedure a light anaesthesia was administered, to achieve compliance.
This way we obtained a simple and reliable method of comparison.
Efficacy of chemoradiotherapy compared to radiotherapy alone was calculated as: […]
Median survival after chemotherapy compared to radiotherapy alone was calculated as:
The absolute numeric difference in median survival time after chemotherapy alone compared to radiotherapy alone was simply calculated as: Difference in survival (days)=MS radiotherapy−MS chemotherapy Eq. 3)
Survival times within the separate experimental treatment groups were compiled, and presented in Kaplan-Meier plots. P-values from Logrank tests comparing survival in experimental groups compared to radiotherapy alone are shown.
The dose-rate was 4.7 Gy/minute.
Dexrazoxane (Zinecard®) was obtained from Pharmacia (Kalamazoo, Mich.) and further diluted in Ringer-lactate. Etoposide (Vepesid™) was obtained as a ready to administer liquid solution from Pharmacia A/S (Copenhagen, DK) and diluted to final concentration in isotonic saline. 3H-etoposide was obtained from Moravek (Calif., USA) and kept at −20° C. All drugs were administered by the intra-peritoneal (ip.) route.

[3] = system: topoisomerase-II; settings: in vitro, cited from earlier work
[4] = system: Ehrlich Ascites tumour cells; assay: Clonogenic survival in soft agar after drug with or without concurrent radiotherapy; settings: for Cell-kill interaction of etoposide with radiotherapy: increasing concentrations of etoposide, 150 minutes exposure
[5] = Etoposide area under the curve after intra-peritoneal treatment; assay type: in vivo; settings: own experiments, data unpublished
Protocol: Following intra-peritoneal treatment with etoposide, approximately 95% of the total etoposide area under the curve is covered within 150 minutes after administration (own experiments, data unpublished). […] Ehrlich Ascites tumour cells were incubated in etoposide or dexrazoxane for 30 minutes before irradiation, and then allowed further 120 minutes post-irradiation drug incubation, resulting in a total duration of exposure of 150 minutes.

[6] = Brain and tumour uptake using tritiated etoposide; assay type: in vivo, mice; settings: ten minutes after ip administration
Protocol: Tritium-labelled etoposide was mixed with either “cold” etoposide 9.0 mg/ml, “cold” etoposide 0.9 mg/ml or isotonic saline, all in a final volume of 200 uL. Ten minutes after the administration mice were anaesthetized by CO2, blood was collected and plasma was separated. […] Tumour and unaffected contra-lateral brain were removed under a surgical microscope, weighed and sonicated. Activity was measured in a liquid scintillation counter from Packard (US), and counts/gram in brain and tumour was compared to concurrent plasma values.
as §1

[7] = system: topoisomerase II; settings: cited from earlier work
[8] = system: brain metastasis from SCLC; settings: cited from earlier work
[9] = concurrent teniposide and WBRT, phase III trial

Cc1cc(-c2ccc(/N=N/c3ccc4c(S(=O)(=O)[O-])cc(S(=O)(=O)[O-])c(N)c4c3O)c(C)c2)ccc1/N=N/c1ccc2c(S(=O)(=O)[O-])cc(S(=O)(=O)[O-])c(N)c2c1O.[Na+].[Na+].[Na+].[Na+] [Evans blue dye]
Colouration of brain or tumour tissue after tail-vein administration [1]: no colouration of brain or tumour tissue

CN(C)c1ccc(C(=C2C=CC(=[N+](C)C)C=C2)c2c(O)c(S(=O)(=O)[O-])cc3cc(S(=O)(=O)[O-])ccc23)cc1.[Na+] [Lissamine Green]
Colouration of brain or tumour tissue after tail-vein administration [1]: no colouration of brain or tumour tissue

C[C@@H](CN1CC(=O)NC(=O)C1)N1CC(=O)NC(=O)C1 [dexrazoxane, (S)-(+)-1,2-Bis(3,5-dioxopiperazin-1-yl)propane]
Survival after drug alone ([2]; dexrazoxane 125 mg/kg alone): increased survival a little | Effect on survival in combination with radiotherapy ([2]; dexrazoxane 125 mg/kg and concurrent 10 Gy): neither dexrazoxane 125 mg/kg (FIG. 1D) nor solvent affected survival in combination with radiotherapy | Difference in survival, days lost from ineffective treatment (Eq. 3) ([2]; dexrazoxane 125 mg/kg ip alone, compared to radiotherapy): 5 days | Effect on toxicity from etoposide in clonogenic assay [3]: antagonises toxicity from etoposide | Formation of DNA strand breaks induced by topoisomerase-II poisons [3]: inhibits the formation of DNA strand breaks | Toxicity of drug alone in clonogenic survival ([4]; dexrazoxane alone): non-toxic | Radio-enhancing effect in clonogenic survival ([4]; fixed doses of dexrazoxane 25 μM or 125 μM, increasing radiotherapy doses): no radio-enhancing effect; also recorded: no effect at all

COc1cc([C@@H]2c3cc4c(cc3[C@@H](O[C@@H]3O[C@@H]5CO[C@@H](C)O[C@H]5[C@H](O)[C@H]3O)[C@H]3COC(=O)[C@H]23)OCO4)cc(OC)c1O [etoposide, 9-[[4,6-O-(1R)-ethylidene-β-D-glucopyranosyl]oxy]-5,8,8a,9-tetrahydro-5-(4-hydroxy-3,5-dimethoxyphenyl)-(5R,5aR,8aR,9S)-furo[3′,4′:6,7]naphtho[2,3-d]-1,3-dioxol-6(5aH)-one]
Share of total etoposide area under the curve covered within 150 minutes after administration [5]: approximately 95% | Survival after drug alone ([2]; etoposide 34 mg/kg alone): increased survival | Effect on survival from radiotherapy ([2]; etoposide 34 mg/kg and concurrent 10 Gy): did not enhance survival from radiotherapy | Cell-kill of etoposide in combination with radiotherapy ([3]; literature): synergistic cell-kill | Influence of dose, vehicle or dexrazoxane pre-treatment on uptake in tumour [6]: no influence on uptake in tumour | Tumour drug uptake compared to brain [6]: higher than in brain, but statistically insignificant, except after treatment with the low dose of etoposide | Brain/plasma ratio of 3H-etoposide ([6]; etoposide dose-escalation or dexrazoxane 125 mg/kg pre-treatment): Neither etoposide dose-escalation nor pre-treatment with dexrazoxane altered the brain/plasma ratio | Interaction by combination index (Chou and Talalay) ([4]; increasing concentrations of etoposide with radiotherapy): synergism | Cell-kill interaction of etoposide with radiotherapy ([4]; 1.25 Gy): did not result in an increased cell-kill | Cell-kill interaction of etoposide with radiotherapy ([4]; 7.5 Gy): synergistic cell-kill; also recorded: supra-additive cell-kill | Interaction by combination index (Chou and Talalay) ([4]; lowest concentrations of etoposide with radiotherapy): antagonistic

COc1cc([C@@H]2c3cc4c(cc3[C@@H](O[C@@H]3O[C@@H]5CO[C@@H](c6cccs6)O[C@H]5[C@H](O)[C@H]3O)[C@H]3COC(=O)[C@H]23)OCO4)cc(OC)c1O [teniposide]
Potency relative to VP-16 [7]: about 10 fold | Time to cerebral progression ([8]; concurrent teniposide and WBRT versus teniposide alone): significantly increased | Median survival [8, 9]: 3.5 months | Response rate [8, 9]: 57% | Response rate ([8]; teniposide 150 mg/m^2 day 1, 3 and 5, alone, phase II): 33% | Median survival ([8]; teniposide alone, phase III trial): 3.2 months
